Assays:
Format in all cases: in vivo
[1] = tested on: crabgrass, Large (large crabgrass, Digitaria sanguinalis); experiment: Test A pre-/postemergence greenhouse herbicide test; conditions: 0 to 100 scale (0 no effect, 100 complete control), approx. 10 d
Source text: (§1) Seeds of plant species selected from barnyardgrass (Echinochloa crus-galli), crabgrass, Large (large crabgrass, Digitaria sanguinalis), foxtail, giant (giant foxtail, Setaria faberii), morningglory (Ipomoea spp.), pigweed (Amaranthus retroflexus), velvetleaf (Abutilon theophrasti), wheat (Triticum aestivum), and corn (Zea mays) were planted into a blend of loam soil and sand and treated preemergence with a directed soil spray using test chemicals formulated in a non-phytotoxic solvent mixture which included a surfactant. At the same time these species were also treated with postemergence applications of test chemicals formulated in the same manner.
(§2) Plants ranged in height from 2 to 10 cm and were in the one- to two-leaf stage for the postemergence treatment. Treated plants and untreated controls were maintained in a greenhouse for approximately 10 d, after which time all treated plants were compared to untreated controls and visually evaluated for injury. Plant response ratings, summarized in Table A, are based on a 0 to 100 scale where 0 is no effect and 100 is complete control. A dash (-) response means no test result.

[2] = tested on: morningglory (Ipomoea spp.); experiment: as above; conditions: 0 to 100 scale (0 no effect, 100 complete control), approx. 10 d
Source text: as §1, §2

[3] = tested on: barnyardgrass (Echinochloa crus-galli); experiment: as above; conditions: 0 to 100 scale (0 no effect, 100 complete control), approx. 10 d
Source text: as §1, §2

[4] = tested on: pigweed (Amaranthus retroflexus); experiment: as above; conditions: 0 to 100 scale (0 no effect, 100 complete control), approx. 10 d
Source text: as §1, §2

[5] = tested on: corn (Zea mays); experiment: as above; conditions: 0 to 100 scale (0 no effect, 100 complete control), approx. 10 d
Source text: as §1, §2

[6] = tested on: wheat (Triticum aestivum); experiment: as above; conditions: 0 to 100 scale (0 no effect, 100 complete control), approx. 10 d
Source text: as §1, §2

[7] = tested on: velvetleaf (Abutilon theophrasti); experiment: as above; conditions: 0 to 100 scale (0 no effect, 100 complete control), approx. 10 d
Source text: as §1, §2

[8] = tested on: foxtail, giant (giant foxtail, Setaria faberii); experiment: as above; conditions: 0 to 100 scale (0 no effect, 100 complete control), approx. 10 d
Source text: as §1, §2

[9] = tested on: sedge, umbrella (small-flower umbrella sedge, Cyperus difformis); experiment: Test B flooded paddy test; conditions: Flood, 125 g ai/ha; scale of 0 to 100, 0 is no effect, 100 is complete control; 13 to 15 d
Procedure: (§3) Plant species in the flooded paddy test selected from rice (Oryza sativa), small-flower sedge, umbrella (small-flower umbrella sedge, Cyperus difformis), ducksalad (Heteranthera limosa), and barnyardgrass (Echinochloa crus-galli) were grown to the 2-leaf stage for testing. At time of treatment, test pots were flooded to 3 cm above the soil surface, treated by application of test compounds directly to the paddy water, and then maintained at that water depth for the duration of the test. Treated plants and controls were maintained in a greenhouse for 13 to 15 d, after which time all species were compared to controls and visually evaluated. Plant response ratings, summarized in Table B, are based on a scale of 0 to 100 where 0 is no effect and 100 is complete control. A dash (-) response means no test result.

[10] = tested on: rice (Oryza sativa); experiment: Test B flooded paddy test; conditions: Flood, 125 g ai/ha; scale of 0 to 100, 0 is no effect, 100 is complete control; 13 to 15 d
Procedure: as §3

[11] = tested on: barnyardgrass (Echinochloa crus-galli); experiment: Test B flooded paddy test; conditions: Flood, 125 g ai/ha; scale of 0 to 100, 0 is no effect, 100 is complete control; 13 to 15 d
Procedure: as §3

[12] = tested on: ducksalad (Heteranthera limosa); experiment: Test B flooded paddy test; conditions: Flood, 125 g ai/ha; scale of 0 to 100, 0 is no effect, 100 is complete control; 13 to 15 d
Procedure: as §3

| SMILES | Plant response rating, Crabgrass, Large ([1]; Postemergence, 125 g ai/ha) | Plant response rating, Crabgrass, Large ([1]; Postemergence, 500 g ai/ha) | Plant response rating, Crabgrass, Large ([1]; Preemergence, 125 g ai/ha) | Plant response rating, Crabgrass, Large ([1]; Preemergence, 500 g ai/ha) | Plant response rating, Morningglory ([2]; Postemergence, 125 g ai/ha) | Plant response rating, Morningglory ([2]; Postemergence, 500 g ai/ha) | Plant response rating, Morningglory ([2]; Preemergence, 125 g ai/ha) | Plant response rating, Morningglory ([2]; Preemergence, 500 g ai/ha) | Plant response rating, Barnyardgrass ([3]; Postemergence, 125 g ai/ha) | Plant response rating, Barnyardgrass ([3]; Postemergence, 500 g ai/ha) | Plant response rating, Barnyardgrass ([3]; Preemergence, 125 g ai/ha) | Plant response rating, Barnyardgrass ([3]; Preemergence, 500 g ai/ha) | Plant response rating, Pigweed ([4]; Postemergence, 125 g ai/ha) | Plant response rating, Pigweed ([4]; Postemergence, 500 g ai/ha) | Plant response rating, Pigweed ([4]; Preemergence, 125 g ai/ha) | Plant response rating, Pigweed ([4]; Preemergence, 500 g ai/ha) | Plant response rating, Corn ([5]; Postemergence, 125 g ai/ha) | Plant response rating, Corn ([5]; Postemergence, 500 g ai/ha) | Plant response rating, Corn ([5]; Preemergence, 125 g ai/ha) | Plant response rating, Corn ([5]; Preemergence, 500 g ai/ha) | also measured |
| --- | --- | --- | --- | --- | --- | --- | --- | --- | --- | --- | --- | --- | --- | --- | --- | --- | --- | --- | --- | --- | --- |
| CCCc1cc(=O)n(-c2ccc(F)cc2)nc1Cc1ccnc(C(F)(F)F)c1 [Compound 24] | 70 | 90 | 100 | 100 | 50 | 90 | 30 | 80 | 70 | 90 | 70 | 100 | 100 | 100 | 100 | 100 | 50 | 60 | 30 | 50 | Plant response rating, Wheat ([6]; Postemergence, 125 g ai/ha): 50; Plant response rating, Wheat ([6]; Postemergence, 500 g ai/ha): 70; Plant response rating, Wheat ([6]; Preemergence, 125 g ai/ha): 30; Plant response rating, Wheat ([6]; Preemergence, 500 g ai/ha): 50; Plant response rating, Velvetleaf ([7]; Postemergence, 125 g ai/ha): 80; Plant response rating, Velvetleaf ([7]; Postemergence, 500 g ai/ha): 80; Plant response rating, Velvetleaf ([7]; Preemergence, 125 g ai/ha): 30; Plant response rating, Velvetleaf ([7]; Preemergence, 500 g ai/ha): 80; Plant response rating, Foxtail, Giant ([8]; Postemergence, 125 g ai/ha): 70; Plant response rating, Foxtail, Giant ([8]; Postemergence, 500 g ai/ha): 80; Plant response rating, Foxtail, Giant ([8]; Preemergence, 125 g ai/ha): 100; Plant response rating, Foxtail, Giant ([8]; Preemergence, 500 g ai/ha): 100; Plant response rating, Sedge, Umbrella [9]: 90; Plant response rating, Rice [10]: 20; Plant response rating, Barnyardgrass [11]: 0; Plant response rating, Ducksalad [12]: 30 |
| CN(C)c1cc(=O)n(-c2ccc(F)cc2)nc1Cc1ccnc(C(F)(F)F)c1 [Compound 20] | 50 | 90 | 100 | 100 | 50 | 100 | 10 | 60 | 50 | 90 | 20 | 90 | 90 | 100 | 100 | 100 | 30 | 60 | 0 | 10 | Plant response rating, Wheat ([6]; Postemergence, 125 g ai/ha): 0; Plant response rating, Wheat ([6]; Postemergence, 500 g ai/ha): 50; Plant response rating, Wheat ([6]; Preemergence, 125 g ai/ha): 0; Plant response rating, Wheat ([6]; Preemergence, 500 g ai/ha): 30; Plant response rating, Velvetleaf ([7]; Postemergence, 125 g ai/ha): 60; Plant response rating, Velvetleaf ([7]; Postemergence, 500 g ai/ha): 70; Plant response rating, Velvetleaf ([7]; Preemergence, 125 g ai/ha): 20; Plant response rating, Velvetleaf ([7]; Preemergence, 500 g ai/ha): 50; Plant response rating, Foxtail, Giant ([8]; Postemergence, 125 g ai/ha): 40; Plant response rating, Foxtail, Giant ([8]; Postemergence, 500 g ai/ha): 80; Plant response rating, Foxtail, Giant ([8]; Preemergence, 125 g ai/ha): 80; Plant response rating, Foxtail, Giant ([8]; Preemergence, 500 g ai/ha): 100; Plant response rating, Sedge, Umbrella [9]: 0; Plant response rating, Rice [10]: 0; Plant response rating, Barnyardgrass [11]: 0; Plant response rating, Ducksalad [12]: 0 |

— patent publication US10202361B2, “Pyridazinones as herbicides” (E I DU PONT DE NEMOURS AND COMPANY, priority 2014, dated 2019)
